# Source: patent US8815909B2, “Diaminocyclohexane compounds and uses thereof” (Bristol-Myers Squibb Company, priority 2011, dated 2014)
# Read-outs that look alike come from different tables or passages of the source.
# Target: T1, human Y4 receptor (Homo sapiens, UniProt P50391)
# T1 construct: expressed in transfected cells
# Assay: NPY4 cAMP HTRF Agonist Assay (inhibitory cAMP assay, Gi activation by Y4 agonism)
# Type: cell-based
# Outline: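 CHO cells stably expressing human Y4, 5000/well, exposed to compound with forskolin and IBMX in PBS for 30 min at room temperature. Gi-mediated inhibition of cAMP then measured by HTRF after 1 h with d2-conjugate and anti-cAMP cryptate.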
# [1] = human Y4 receptor, cAMP, read-out: hY4 CAMP EC50
# [2] = second TABLE 1, R2 is Phenyl-CF3, read-out: hY4 CAMP EC50
# [3] = TABLE 5, R2 is Pyridinyl-CF3, read-out: hY4 CAMP EC50
# [4] = human Y4 stable CHO clonal cells, forskolin + IBMX, read-out: NPY4 cAMP HTRF Agonist Assay EC50
# [5] = TABLE 2, R2 is Phenyl-CN, read-out: hY4 CAMP EC50
# [6] = TABLE 4, R2 is Pyridinyl-CN, read-out: hY4 CAMP EC50
# T1 sequence (P50391 whole entry): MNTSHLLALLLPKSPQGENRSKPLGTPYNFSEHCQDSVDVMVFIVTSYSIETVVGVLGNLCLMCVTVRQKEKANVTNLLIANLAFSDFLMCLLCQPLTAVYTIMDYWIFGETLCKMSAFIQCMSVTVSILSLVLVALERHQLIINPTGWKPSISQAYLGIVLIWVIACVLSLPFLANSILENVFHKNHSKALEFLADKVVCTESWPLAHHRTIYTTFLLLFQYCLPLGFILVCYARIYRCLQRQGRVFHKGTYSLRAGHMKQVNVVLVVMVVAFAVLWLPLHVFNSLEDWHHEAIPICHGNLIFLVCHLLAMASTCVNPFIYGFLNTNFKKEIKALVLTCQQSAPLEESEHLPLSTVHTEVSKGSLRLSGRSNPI
smiles,measurement,setting,value
CC(C)(C)OC(=O)Nc1cccc(-c2cnc(N[C@@H]3CCCC[C@H]3N[C@H]3CCCN(c4ccc5ncnn5c4)C3)o2)c1 [Example 488],EC50,[1],699 nM
CC(=O)N(C)c1cccc(-c2ccnc(N[C@@H]3CCCC[C@H]3N[C@H]3CCCN(c4ccc(C(F)(F)F)cc4)C3)c2)c1 [Example 174],EC50,[2],363 nM
O=C(O)c1cccc(-c2cnc(N[C@@H]3CCCC[C@H]3N[C@H]3CCCN(c4ccc(C(F)(F)F)cc4)C3)o2)c1 [Example 116],EC50,[2],886 nM
NC(=O)c1cccc(-c2ccnc(N[C@@H]3CCCC[C@H]3N[C@H]3C[C@@H]4C[C@H]3N(c3ccc(C(F)(F)F)cn3)C4)c2)c1 [Example 337],EC50,[3],26 nM
"O=[N+]([O-])c1ccc(N2CCC[C@H](N[C@@H]3CCCC[C@H]3Nc3ncc(-c4ccc(F)cc4)o3)C2)cc1 [Example 18, (1R,2R)—N1-(5-(4-Fluorophenyl)oxazol-2-yl)-N2-((S)-1-(4-nitrophenyl)piperidin-3-yl)cyclohexane-1,2-diamine]",EC50,[4],7 nM
C[C@]1(N[C@@H]2CCCC[C@H]2Nc2cc(-c3cccc(C(N)=O)c3)ccn2)CCCN(c2ccc(C(F)(F)F)nc2)C1 [Example 323],EC50,[3],17 nM
NC(=O)c1cccc(-c2cnc(N[C@@H]3CCCC[C@H]3N[C@H]3CCCN(c4ccc(F)c(F)c4)C3)o2)c1 [Example 454],EC50,[1],3 nM
Cn1nnc(-c2ccc(N3CCC[C@H](N[C@@H]4CCCC[C@H]4Nc4cc(-c5cccc(C(N)=O)c5)ccn4)C3)cc2)n1 [Example 505],EC50,[1],9 nM
COc1ccc(-c2ccnc(N[C@@H]3CCCC[C@H]3N[C@H]3CCCN(c4ccc(C#N)cc4)C3)c2)cc1 [Example 219],EC50,[5],45 nM
CS(=O)(=O)NCc1cccc(-c2ccnc(N[C@@H]3CCCC[C@H]3N[C@H]3CCCN(c4ccc(C#N)cc4)C3)c2)c1 [Example 278],EC50,[5],24 nM
N#Cc1ccc(N2CCC[C@H](N[C@@H]3CCCC[C@H]3Nc3cc(-c4ccccc4OC(F)(F)F)ccn3)C2)cc1 [Example 241],EC50,[5],289 nM
"O=[N+]([O-])c1ccc(N2CCC[C@H](N[C@@H]3CCCC[C@H]3Nc3nc4ccccc4o3)C2)cc1 [Example 3, (1R,2R)—N1-(Benzo[d]oxazol-2-yl)-N2-((S)-1-(4-nitrophenyl)piperidin-3-yl)cyclohexane-1,2-diamine]",EC50,[4],69 nM
C[C@]1(N[C@@H]2CCCC[C@H]2Nc2ncc(-c3cccc(C(N)=O)c3)o2)CCCN(c2cnc(C#N)cn2)C1 [Example 476],EC50,[1],49 nM
C[C@]1(N[C@@H]2CCCC[C@H]2Nc2ncc(-c3cccc(C(N)=O)c3)o2)CCCN(c2ccc(C(=O)NC(=O)C3CC3)nc2)C1 [Example 446],EC50,[1],6 nM
"N#Cc1ccc(N2CCC[C@H](N[C@@H]3CCCC[C@H]3Nc3cc(-c4ccc(O)cc4)ccn3)C2)cc1 [Example 45, 4-((S)-3-((1R,2R)-2-(4-(4-Hydroxyphenyl)pyridin-2-ylamino)cyclohexylamino)piperidin-1-yl)benzonitrile tris-trifluoroacetate]",EC50,[4],19 nM
O=C(Nc1cccc(-c2cnc(N[C@@H]3CCCC[C@H]3N[C@H]3CCCN(c4ccc(C(F)(F)F)nc4)C3)o2)c1)C1CC1 [Example 334],EC50,[3],3 nM
C[C@]1(N[C@H]2CCCC[C@@H]2Nc2cc(-c3cccc(C(N)=O)c3)ccn2)CCCN(c2cnc(C(F)(F)F)nc2)C1 [Example 418],EC50,[1],48 nM
CC(C)(C)OC(=O)Nc1cccc(-c2cnc(N[C@@H]3CCCC[C@H]3N[C@H]3CCCN(c4ccc(C(F)(F)F)nc4)C3)o2)c1 [Example 333],EC50,[3],95 nM
N#Cc1ncc(N2CCC[C@H](N[C@@H]3CCCC[C@H]3Nc3cc(-c4cc(F)c(F)cc4F)ccn3)C2)cn1 [Example 436],EC50,[1],756 nM
NC(=O)c1cccc(-c2ccnc(N[C@@H]3CCCC[C@H]3N[C@H]3C[C@@H]4C[C@H]3N(c3ccc([N+](=O)[O-])cc3)C4)c2)c1 [Example 294],EC50,"TABLE 3, R2 is Phenyl-NO2, read-out: hY4 CAMP EC50",41 nM
"N#Cc1ccc(N2CCC[C@H](N[C@@H]3CCCC[C@H]3Nc3cc(-c4cccc(F)c4)ccn3)C2)cc1 [Example 36, 4-((S)-3-((1R,2R)-2-(4-(3-Fluorophenyl)pyridin-2-ylamino)cyclohexylamino)piperidin-1-yl)benzonitrile tris-trifluoroacetate]",EC50,[4],262 nM
FC(F)(F)c1ccc(N2CCC[C@H](N[C@@H]3CCCC[C@H]3Nc3cc(-c4ccncc4)ccn3)C2)cc1 [Example 191],EC50,[2],48 nM
COC(=O)Nc1cccc(-c2ccnc(N[C@@H]3CCCC[C@H]3N[C@H]3CCCN(c4cnc(-c5noc(C)n5)nc4)C3)c2)c1 [Example 465],EC50,[1],0.02 nM
Cc1noc(-c2ccc(N3CCC[C@H](N[C@@H]4CCCC[C@H]4Nc4cc(-c5cccc(C(N)=O)c5)ccn4)C3)cc2)n1 [Example 374],EC50,[1],2 nM
FC(F)(F)c1ccc(N2CCC[C@H](N[C@@H]3CCCC[C@H]3Nc3cc(-c4cccc5c4CCNC5)ccn3)C2)cc1 [Example 145],EC50,[2],905 nM
N#Cc1ccc(N2CCC[C@H](N[C@@H]3CCCC[C@H]3Nc3cc(-c4cncc5ccccc45)ccn3)C2)cc1 [Example 216],EC50,[5],189 nM
CNCc1cccc(-c2ccnc(N[C@@H]3CCCC[C@H]3N[C@H]3CCCN(c4ccc(C(F)(F)F)cc4)C3)c2)c1 [Example 144],EC50,[2],26 nM
FC(F)(F)Oc1ccc(-c2cnc(N[C@@H]3CCCC[C@H]3N[C@H]3C[C@@H]4C[C@H]3N(c3ccc(C(F)(F)F)cn3)C4)o2)cc1 [Example 338],EC50,[3],226 nM
N#Cc1cc(N2C[C@@H]3C[C@H](N[C@@H]4CCCC[C@H]4Nc4ncc(-c5ccc(OC(F)(F)F)cc5)o4)[C@H]2C3)ccn1 [Example 310],EC50,[6],124 nM
CNC(=O)Nc1cccc(-c2cnc(N[C@@H]3CCCC[C@H]3N[C@H]3CCCN(c4cnc(C(F)(F)F)nc4)C3)o2)c1 [Example 428],EC50,[1],4 nM
NC(=O)c1cccc(-c2cnc(N[C@@H]3CCCC[C@H]3N[C@H]3C[C@@H]4C[C@H]3N(c3cnc(C(F)(F)F)cn3)C4)o2)c1 [Example 470],EC50,[1],162 nM
FC(F)(F)c1ccc(N2CCC[C@H](N[C@@H]3CCCC[C@H]3Nc3cc4ccccc4cn3)C2)cc1 [Example 195],EC50,[2],48 nM
N#Cc1ccc(N2CCC[C@H](N[C@@H]3CCCC[C@H]3Nc3cc(Cc4ccccc4)ccn3)C2)cc1 [Example 245],EC50,[5],299 nM
OCC#Cc1ccnc(N[C@@H]2CCCC[C@H]2N[C@H]2CCCN(c3ccc(C(F)(F)F)cc3)C2)c1 [Example 163],EC50,[2],74 nM
N#Cc1ccc(N2CCC[C@H](N[C@@H]3CCCC[C@H]3Nc3ncc(-c4cccc(C(N)=O)c4)o3)C2)cn1 [Example 305],EC50,[6],7 nM
N#Cc1cnc(N[C@@H]2CCCC[C@H]2N[C@H]2CCCN(c3ccc(C(F)(F)F)cc3)C2)s1 [Example 193],EC50,[2],70 nM
CS(=O)(=O)NCc1ccc(-c2ccnc(N[C@@H]3CCCC[C@H]3N[C@H]3CCCN(c4ccc(C#N)cc4)C3)c2)cc1 [Example 243],EC50,[5],602 nM
Cn1cnc(-c2ccc(N3CCC[C@H](N[C@@H]4CCCC[C@H]4Nc4cc(-c5ccc(F)c(F)c5)ccn4)C3)cc2)n1 [Example 457],EC50,[1],26 nM
"CC(C)(C)OC(=O)/C=C\c1ccnc(N[C@@H]2CCCC[C@H]2N[C@H]2CCCN(c3ccc(C#N)cc3)C2)c1 [Example 108, (Z)-tert-butyl 3-(2-(((1R,2R)-2-(((S)-1-(4-cyanophenyl)piperidin-3-yl)amino)cyclohexyl)amino)pyridin-4-yl)acrylate]",EC50,[4],21 nM
